Measured values from ChEMBL document CHEMBL5728678, “Heteroaryl compounds as BTK inhibitors and uses thereof” (2021).

Target: Tyrosine-protein kinase BTK (Homo sapiens, UniProt Q06187, C481S)
Assay: Microfluidic Off-Chip Mobility Shift Assay Protocol for Potency Assessment Against BTK C481S Enzyme: The protocol below describes a microfluidic, off-chip mobility shift kinase assay to measure inherent potency of compounds against BTK C481S enzyme. The mechanics of the assay platform are described by the vendor (PerkinElmer, Hopkinton, Mass.) on their website at the following URL: http://caliperls.com.Briefly, 2.5× stocks of His-TEV-hsBTK(328-659)(C481S) from the Merck Serono Protein Purification Laboratory in Darmstadt, Germany (PCS, Q27/234), 1.6×ATP and appropriate KinKDR peptide substrate (FITC-AHA-[…]-NH2; Tufts University Core Facility custom synthesis) were prepared in kinase reaction buffer consisting of 25 mM MgCl2, 0.015% Brij-35 (30%), 100 mM HEPES, pH 7.5, and 10 mM DTT.5 uL of enzyme buffer and 7.5 uL of ATP/KinKDR peptide substrate mix were added to Matrix (#4315) 384-well, sterile, flat-bottom polypropylene plates (Thermo Fisher Scientific, Hudson, N.H.) with 125 nL of serially diluted compounds prepared in 100% DMSO, and incubated for 90 min. at 25° C. Following the incubation period, reactions were terminated by adding 65 uL quench buffer consisting of 100 mM HEPES, pH 7.5, 0.015% Brij-35 (30%), 0.277% Coating Reagent #3 (PerkinElmer, Mountain View, Calif.), 5% DMSO. Terminated reactions were monitored at −2 PSI, −3000 V/−700 Volts in a LabChip 3000 plate reader from Caliper Life Sciences, a PerkinElmer Company (Hopkinton, Mass.), and the activity was quantified by laser-induced fluorescence measuring the charge/mass difference between substrate and product resulting from peptide phosphorylation. IC50 and efficacy were determined by plotting log [Inhibitor] vs. % Activity in GeneData Screener (Basel, Switzerland).

Sequence of Tyrosine-protein kinase BTK (Homo sapiens, UniProt Q06187, C481S) (Q06187 2-659 C481S limits assumed): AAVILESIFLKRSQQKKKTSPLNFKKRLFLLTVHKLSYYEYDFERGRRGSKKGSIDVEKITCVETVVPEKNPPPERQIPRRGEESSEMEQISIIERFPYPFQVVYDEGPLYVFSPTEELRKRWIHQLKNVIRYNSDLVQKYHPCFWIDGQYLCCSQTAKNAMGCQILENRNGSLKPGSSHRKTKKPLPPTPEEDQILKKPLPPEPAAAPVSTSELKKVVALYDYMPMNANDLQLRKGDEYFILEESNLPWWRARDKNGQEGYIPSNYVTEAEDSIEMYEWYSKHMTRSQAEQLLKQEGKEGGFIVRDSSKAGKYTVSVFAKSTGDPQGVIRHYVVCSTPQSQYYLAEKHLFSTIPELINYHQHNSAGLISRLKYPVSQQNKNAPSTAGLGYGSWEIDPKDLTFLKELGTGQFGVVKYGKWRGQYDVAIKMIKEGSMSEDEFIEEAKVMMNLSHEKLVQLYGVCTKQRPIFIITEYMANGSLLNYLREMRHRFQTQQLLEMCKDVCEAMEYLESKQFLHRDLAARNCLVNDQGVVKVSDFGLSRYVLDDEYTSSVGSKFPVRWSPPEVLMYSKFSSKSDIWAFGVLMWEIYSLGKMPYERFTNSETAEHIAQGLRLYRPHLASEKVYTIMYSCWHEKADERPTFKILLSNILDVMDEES

| IC50 [µM] | Structure (SMILES) |
| --- | --- |
| < 0.1 | Cn1cc(-c2nc3c(-c4cccc(CNC(=O)c5noc(C(C)(C)C)n5)c4)ccnc3[nH]2)cn1 |
| < 0.1 | CC(C)(C)c1nc(C(=O)NCc2ccc(-c3ccnc4[nH]c(-c5cnn(C6CCOCC6)c5)nc34)cc2F)no1 |
| < 0.1 | CC(C)(C)c1nc(C(=O)NCc2ccc(-c3ccnc4[nH]c(-c5cnn(C6COC6)c5)nc34)cc2F)no1 |

Target: Tyrosine-protein kinase BTK (Homo sapiens, UniProt Q06187)
Assay: Microfluidic Off-Chip Mobility Shift Assay Protocol for Potency Assessment Against BTK Enzyme: Briefly, 2.5× stocks of full-length human BTK (08-080) from CarnaBio USA, Inc., Natick, Mass., 1.6×ATP and appropriate kinKDR peptide substrate (FITC-AHA-[…]-NH2; developed in-house) were prepared in kinase reaction buffer consisting of 25 mM MgCl2, 0.015% Brij-35 (30%), 100 mM HEPES, pH 7.5, and 10 mM DTT. 5 uL of enzyme buffer and 7.5 uL of ATP/kinKDR peptide substrate mix were added to Matrix (#115304) 384-well, sterile, polypropylene plates (Thermo Fisher Scientific, Hudson, N.H.) with 125 nL of serially diluted compounds prepared in 100% DMSO, and incubated for 90 min. at 27° C. Following the incubation period, reactions were stopped by adding 60 uL stop buffer consisting of 100 mM HEPES, pH 7.5, 0.015% Brij-35 (30%), 0.277% Coating Reagent #3 (Caliper Life Sciences, Mountain View, Calif.), 5% DMSO. Stopped reactions were monitored at −2 PSI, −3000 V/−700 V in a LabChip 3000 plate reader from Caliper Life Sciences, a PerkinElmer Company (Hopkinton, Mass.), and the activity was measured by off-chip mobility shift assay measuring the charge/mass difference between substrate and product resulting from peptide phosphorilation. IC50 and efficacy were determined by plotting log [Inhibitor] vs. % Activity in GeneData Screener (Basel. Switzerland).

Sequence of Tyrosine-protein kinase BTK (Homo sapiens, UniProt Q06187) (Q06187 whole entry): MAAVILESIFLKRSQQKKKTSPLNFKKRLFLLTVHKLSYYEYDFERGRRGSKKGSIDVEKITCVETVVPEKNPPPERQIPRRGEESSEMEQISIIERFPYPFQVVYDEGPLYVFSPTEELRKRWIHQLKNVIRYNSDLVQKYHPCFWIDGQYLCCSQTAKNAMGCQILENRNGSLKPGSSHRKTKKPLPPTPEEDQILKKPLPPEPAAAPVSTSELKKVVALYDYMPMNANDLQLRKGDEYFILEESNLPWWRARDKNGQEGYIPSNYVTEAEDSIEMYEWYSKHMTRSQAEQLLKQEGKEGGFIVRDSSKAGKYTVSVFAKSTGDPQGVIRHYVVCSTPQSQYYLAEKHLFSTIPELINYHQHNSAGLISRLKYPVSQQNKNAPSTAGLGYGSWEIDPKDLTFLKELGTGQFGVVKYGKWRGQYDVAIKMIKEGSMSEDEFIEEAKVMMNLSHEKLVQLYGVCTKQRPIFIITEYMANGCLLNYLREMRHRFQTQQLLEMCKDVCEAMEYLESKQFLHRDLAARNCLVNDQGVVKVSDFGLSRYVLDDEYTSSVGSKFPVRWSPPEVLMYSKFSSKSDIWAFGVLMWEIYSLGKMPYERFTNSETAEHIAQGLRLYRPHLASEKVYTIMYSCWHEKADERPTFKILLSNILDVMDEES

| Structure (SMILES) | IC50 [µM] |
| --- | --- |
| CC(C)(C)c1noc(C(=O)NCc2ccc(-c3ccnc4[nH]c([C@@H]5C[C@H]5c5ccccc5)nc34)cc2F)n1 | > 5 |
| CC(C)(C)c1noc(C(=O)NCc2ccc(-c3ccnc4[nH]c(C5=CCNCC5)nc34)cc2F)n1 | < 0.1 |

Second part, the compound after the results:

| IC50 [µM] | Structure (SMILES) |
| --- | --- |
| > 5 | Cn1cc(-c2nc3c(-c4ccc(CNc5nccc6c5OCCN6C(=O)OC(C)(C)C)c(F)c4)ccnc3[nH]2)cn1 |
| < 0.1 | CCn1cc(-c2nc3c(-c4ccc(CNC(=O)c5cc(C(C)(C)C)on5)c(F)c4)ccnc3[nH]2)cn1 |
